PMC7271024, “N1-Benzofused Modification of Fluoroquinolones Reduces Activity Against Gram-Negative Bacteria” (ACS Omega, 2020)
Values after ≈ are worked out from the molar mass of the structure shown. One block for each compound: values may come before it.

What was measured:
K. pneumoniae M6 = experiment: MIC, microdilution broth method; assay type: cell-based, Klebsiella pneumoniae; conditions: for MIC: Klebsiella pneumoniae; for potentiation of MIC by PMBN: MIC –PMBN vs +PMBN
P. aeruginosa NCTC 13437 = experiment: MIC, microdilution broth method; assay type: cell-based, Pseudomonas aeruginosa; conditions: Pseudomonas aeruginosa
Experimental: (§1) The antibacterial activities of the synthesized fluoroquinolones were evaluated against a panel of Gram-negative pathogens including K. pneumoniae (NCTC 13368, M6), Acinetobacter baumannii (AYE, ATCC 17978), Pseudomonas aeruginosa (PAO1, NCTC 13437), and Escherichia coli (NCTC 12923, LEC001). The ability of molecules to permeate the Gram-negative outer membrane was investigated by adding membrane permeabilizer polymyxin B nonapeptide (PMBN) at sub-inhibitory concentrations (Table 2). Phenylalanine–arginine β-naphthylamide (PAβN) was used to investigate efflux of compounds by resistance–nodulation–division (RND)-family efflux pumps (Table 3).
(§2) Minimal inhibitory concentrations (MICs) were determined using the microdilution broth method. Briefly, compounds were added to the first two columns of a 96-well plate and diluted two-fold down the plate in tryptic soy broth. Overnight cultures of bacteria were then adjusted to a concentration of 1 × 10^6 CFU/mL and added to each well for a final concentration of 5 × 10^5 CFU/mL.

A. baumannii ATCC 17978 = experiment: MIC, microdilution broth method; assay type: cell-based, Acinetobacter baumannii; conditions: for MIC: Acinetobacter baumannii; for potentiation of MIC by PMBN: MIC –PMBN vs +PMBN
E. coli NCTC 12923 = experiment: MIC, microdilution broth method; assay type: cell-based, Escherichia coli; conditions: for MIC: Escherichia coli
A. baumannii AYE = experiment: MIC, microdilution broth method; assay type: cell-based, Acinetobacter baumannii; conditions: for MIC: Acinetobacter baumannii
Experimental: as §1, §2

E. coli LEC001 = experiment: MIC, microdilution broth method; assay type: cell-based, Escherichia coli; conditions: for MIC: Escherichia coli
Experimental: as §1, §2

P. aeruginosa PAO1 = experiment: MIC, microdilution broth method; assay type: cell-based, Pseudomonas aeruginosa; conditions: Pseudomonas aeruginosa
K. pneumoniae NCTC 13368 = experiment: MIC, microdilution broth method; assay type: cell-based, Klebsiella pneumoniae; conditions: for MIC: Klebsiella pneumoniae; for potentiation of MIC by PMBN: MIC –PMBN vs +PMBN
Experimental: as §1, §2

[1] = tested on: panel of Gram-negative pathogens; experiment: MIC panel, statements across strains; assay type: cell-based, K. pneumoniae, A. baumannii, P. aeruginosa, E. coli; conditions: versus ciprofloxacin
Experimental: as §1, §2

[2] = Solubility as observed in the MIC and enzyme experiments; assay type: physicochemical; conditions: S. aureus DNA gyrase / topoisomerase IV assay media, at the high concentrations required
Experimental: In vitro activity assays using purified S. aureus, E. coli and P. aeruginosa DNA gyrase, and S. aureus topoisomerase IV enzymes were performed in order to evaluate whether the gains in inhibitory activity predicted for the benzofused compounds were accurate. The benzothiophene-containing 6e was selected as a representative compound for the purposes of this experiment. […].
A general correlation between N1 substituent hydrophobicity and activity is observed; […].

E. coli DNA gyrase = molecular target: T1, E. coli DNA gyrase (Escherichia coli, UniProt P0AES4+P0AES6); experiment: Cell-free gyrase supercoiling inhibition assay; assay type: biochemical; conditions: purified enzyme, cell-free supercoiling kit
T1 construct: purchased Inspiralis (Norwich, UK) K0001

P. aeruginosa DNA gyrase = molecular target: T2, P. aeruginosa DNA gyrase (Pseudomonas aeruginosa, UniProt P48372+Q9I7C2); experiment: Cell-free gyrase supercoiling inhibition assay; assay type: biochemical; conditions: purified enzyme, cell-free supercoiling kit
T2 construct: purchased Inspiralis (Norwich, UK) PAS001
T2 sequence (Q9I7C2 whole entry): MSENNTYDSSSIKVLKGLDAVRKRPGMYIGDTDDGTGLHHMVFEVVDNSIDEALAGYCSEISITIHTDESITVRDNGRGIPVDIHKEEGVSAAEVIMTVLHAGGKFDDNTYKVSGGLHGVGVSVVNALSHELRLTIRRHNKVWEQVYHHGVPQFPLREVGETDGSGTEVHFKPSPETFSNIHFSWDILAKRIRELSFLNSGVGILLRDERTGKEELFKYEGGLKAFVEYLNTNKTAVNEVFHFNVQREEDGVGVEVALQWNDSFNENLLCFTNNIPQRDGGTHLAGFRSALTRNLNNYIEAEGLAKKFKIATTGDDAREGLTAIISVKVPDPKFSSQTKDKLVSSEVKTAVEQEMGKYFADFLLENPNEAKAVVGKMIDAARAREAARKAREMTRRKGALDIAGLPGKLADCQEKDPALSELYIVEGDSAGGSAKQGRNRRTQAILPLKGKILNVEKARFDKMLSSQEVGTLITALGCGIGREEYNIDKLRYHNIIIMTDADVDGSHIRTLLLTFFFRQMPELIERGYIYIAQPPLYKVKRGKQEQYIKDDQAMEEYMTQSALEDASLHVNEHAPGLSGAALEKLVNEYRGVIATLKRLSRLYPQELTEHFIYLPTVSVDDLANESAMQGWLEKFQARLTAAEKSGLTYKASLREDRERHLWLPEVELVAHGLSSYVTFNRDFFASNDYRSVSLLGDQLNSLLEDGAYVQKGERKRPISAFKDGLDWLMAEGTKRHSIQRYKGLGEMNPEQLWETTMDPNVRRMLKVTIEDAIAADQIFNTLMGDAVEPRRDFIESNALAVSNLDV
T2 sequence (P48372 whole entry): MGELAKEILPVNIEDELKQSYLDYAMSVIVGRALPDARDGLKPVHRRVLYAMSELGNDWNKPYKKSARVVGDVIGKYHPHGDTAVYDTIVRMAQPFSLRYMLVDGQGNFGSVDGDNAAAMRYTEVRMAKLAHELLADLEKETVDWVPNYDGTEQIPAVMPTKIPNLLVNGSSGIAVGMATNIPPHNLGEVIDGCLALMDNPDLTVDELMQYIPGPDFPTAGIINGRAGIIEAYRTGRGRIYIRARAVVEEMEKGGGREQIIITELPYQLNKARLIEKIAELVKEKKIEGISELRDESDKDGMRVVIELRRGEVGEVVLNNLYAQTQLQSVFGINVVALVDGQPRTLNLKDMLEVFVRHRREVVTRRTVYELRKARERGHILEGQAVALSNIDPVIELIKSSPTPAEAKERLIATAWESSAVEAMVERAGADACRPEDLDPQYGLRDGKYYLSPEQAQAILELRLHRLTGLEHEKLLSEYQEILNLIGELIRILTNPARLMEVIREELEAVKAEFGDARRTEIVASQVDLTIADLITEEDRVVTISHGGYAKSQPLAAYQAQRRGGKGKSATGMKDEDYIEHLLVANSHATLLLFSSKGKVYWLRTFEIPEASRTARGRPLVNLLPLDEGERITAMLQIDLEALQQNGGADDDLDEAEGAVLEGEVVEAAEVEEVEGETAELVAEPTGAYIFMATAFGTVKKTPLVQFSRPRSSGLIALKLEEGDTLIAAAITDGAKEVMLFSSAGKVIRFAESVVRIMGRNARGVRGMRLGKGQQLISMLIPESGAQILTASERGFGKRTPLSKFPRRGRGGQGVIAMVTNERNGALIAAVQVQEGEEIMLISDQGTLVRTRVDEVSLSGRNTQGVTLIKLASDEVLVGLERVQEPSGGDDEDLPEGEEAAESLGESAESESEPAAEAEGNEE

[3] = M6, +PMBN (30 μg/mL), ciprofloxacin-sensitive strain (S)
[4] = M6, –PMBN, ciprofloxacin-sensitive strain (S)
[5] = NCTC13437, +PMBN (30 μg/mL), ciprofloxacin-resistant strain (R)
[6] = NCTC13437, –PMBN, ciprofloxacin-resistant strain (R)
[7] = ATCC17978, +PMBN (30 μg/mL), ciprofloxacin-sensitive strain (S)
[8] = ATCC17978, –PMBN, ciprofloxacin-sensitive strain (S)
[9] = NCTC12923, +PMBN (30 μg/mL), ciprofloxacin-sensitive strain (S)
[10] = NCTC12923, –PMBN, ciprofloxacin-sensitive strain (S)
[11] = +PMBN (30 μg/mL), ciprofloxacin-resistant strain (R)
[12] = –PMBN, ciprofloxacin-resistant strain (R)
[13] = LEC001, +PMBN (30 μg/mL), ciprofloxacin-resistant strain (R)
[14] = LEC001, –PMBN, ciprofloxacin-resistant strain (R)
[15] = PAO1, +PMBN (30 μg/mL), ciprofloxacin-sensitive strain (S)
[16] = PAO1, –PMBN, ciprofloxacin-sensitive strain (S)
[17] = NCTC13368, +PMBN (30 μg/mL), ciprofloxacin-resistant strain (R)
[18] = NCTC13368, –PMBN, ciprofloxacin-resistant strain (R)
[19] = RND-family efflux inhibitor PAβN
[20] = PAβN, text names A. baumannii only

MIC (K. pneumoniae M6; [3]): 0.5 µg/mL (≈ 1.23 µM)
MIC (K. pneumoniae M6; [4]): 1 to 2 µg/mL (≈ 2.45 to 4.91 µM)
potentiation of MIC by PMBN (K. pneumoniae M6): 2–4 fold
MIC (P. aeruginosa NCTC 13437; [5]): 32 µg/mL (≈ 78.5 µM)
MIC (P. aeruginosa NCTC 13437; [6]): > 32 µg/mL
MIC (A. baumannii ATCC 17978; [7]): 1 µg/mL (≈ 2.45 µM)
MIC (A. baumannii ATCC 17978; [8]): 2 µg/mL (≈ 4.91 µM)
potentiation of MIC by PMBN (A. baumannii ATCC 17978): 2 fold
MIC (E. coli NCTC 12923; [9]): 0.25 µg/mL (≈ 0.614 µM)
MIC (E. coli NCTC 12923; [10]): 1 µg/mL (≈ 2.45 µM)
MIC (A. baumannii AYE; [11]): > 32 µg/mL
MIC (A. baumannii AYE; [12]): > 32 µg/mL
MIC (E. coli LEC001; [13]): > 32 µg/mL
MIC (E. coli LEC001; [14]): > 32 µg/mL
MIC (P. aeruginosa PAO1; [15]): 0.5 µg/mL (≈ 1.23 µM)
MIC (P. aeruginosa PAO1; [16]): 8 to 16 µg/mL (≈ 19.6 to 39.3 µM)
MIC (K. pneumoniae NCTC 13368; [17]): 2 µg/mL (≈ 4.91 µM)
MIC (K. pneumoniae NCTC 13368; [18]): 16 µg/mL (≈ 39.3 µM)
potentiation of MIC by PMBN (K. pneumoniae NCTC 13368): 4–8 fold
SMILES: O=C(O)c1cn(-c2cccc3ccoc23)c2cc(N3CCNCC3)c(F)cc2c1=O [Compound 6d]
antibacterial activity [1]: limited activity

SMILES: O=C(O)c1cn(-c2cccc3ccsc23)c2cc(N3CCNCC3)c(F)cc2c1=O [Compound 6e]
solubility in assay media [2]: poorly soluble
MIC (K. pneumoniae M6; M6, +PAβN (25 μg/mL), Table 3, strain S): 1 µg/mL (≈ 2.36 µM)
MIC (K. pneumoniae M6; [3]): 2 µg/mL (≈ 4.72 µM)
MIC (K. pneumoniae M6; M6, –PAβN, Table 3, strain S): 8 µg/mL (≈ 18.9 µM)
MIC (K. pneumoniae M6; [4]): 8 µg/mL (≈ 18.9 µM)
potentiation of MIC by PMBN (K. pneumoniae M6): 2–4 fold
effect of PAβN on MIC (K. pneumoniae M6; [19]): significant potentiation
IC50 (E. coli DNA gyrase): 6.38 µM
MIC (P. aeruginosa NCTC 13437; NCTC13437, +PAβN (25 μg/mL), Table 3, strain R): > 32 µg/mL
MIC (P. aeruginosa NCTC 13437; [5]): 32 µg/mL (≈ 75.6 µM)
MIC (P. aeruginosa NCTC 13437; NCTC13437, –PAβN, Table 3, strain R): > 32 µg/mL
MIC (P. aeruginosa NCTC 13437; [6]): > 32 µg/mL
MIC (A. baumannii ATCC 17978; ATCC17978, +PAβN (25 μg/mL), Table 3, strain S): 4 µg/mL (≈ 9.45 µM)
MIC (A. baumannii ATCC 17978; [7]): 4 µg/mL (≈ 9.45 µM)
MIC (A. baumannii ATCC 17978; ATCC17978, –PAβN, Table 3, strain S): 4 µg/mL (≈ 9.45 µM)
MIC (A. baumannii ATCC 17978; [8]): 8 µg/mL (≈ 18.9 µM)
potentiation of MIC by PMBN (A. baumannii ATCC 17978): 2 fold
effect of PAβN on MIC (A. baumannii ATCC 17978; [20]): Neither ciprofloxacin nor compound 6e showed any difference in MIC
MIC (E. coli NCTC 12923; NCTC12923, +PAβN (25 μg/mL), Table 3, strain S): 0.25 µg/mL (≈ 0.59 µM)
MIC (E. coli NCTC 12923; [9]): 1 µg/mL (≈ 2.36 µM)
MIC (E. coli NCTC 12923; NCTC12923, –PAβN, Table 3, strain S): 0.25 to 2 µg/mL (≈ 0.59 to 4.72 µM)
MIC (E. coli NCTC 12923; [10]): 4 µg/mL (≈ 9.45 µM)
effect of PAβN on MIC (E. coli NCTC 12923; PAβN, text names E. coli only): No effect
MIC (A. baumannii AYE; +PAβN (25 μg/mL), Table 3, strain R): > 32 µg/mL
MIC (A. baumannii AYE; [11]): > 32 µg/mL
MIC (A. baumannii AYE; –PAβN, Table 3, strain R): > 32 µg/mL
MIC (A. baumannii AYE; [12]): > 32 µg/mL
effect of PAβN on MIC (A. baumannii AYE; [20]): Neither ciprofloxacin nor compound 6e showed any difference in MIC
MIC (E. coli LEC001; LEC001, +PAβN (25 μg/mL), Table 3, strain R): > 32 µg/mL
MIC (E. coli LEC001; [13]): > 32 µg/mL
MIC (E. coli LEC001; LEC001, –PAβN, Table 3, strain R): > 32 µg/mL
MIC (E. coli LEC001; [14]): > 32 µg/mL
effect of PAβN on MIC (E. coli LEC001; PAβN, text names E. coli only): No effect
MIC (P. aeruginosa PAO1; PAO1, +PAβN (25 μg/mL), Table 3, strain S): 2 µg/mL (≈ 4.72 µM)
MIC (P. aeruginosa PAO1; [15]): 2 µg/mL (≈ 4.72 µM)
MIC (P. aeruginosa PAO1; PAO1, –PAβN, Table 3, strain S): 32 µg/mL (≈ 75.6 µM)
MIC (P. aeruginosa PAO1; [16]): 32 µg/mL (≈ 75.6 µM)
IC50 (P. aeruginosa DNA gyrase): 15.8 µM
MIC (K. pneumoniae NCTC 13368; NCTC13368, +PAβN (25 μg/mL), Table 3, strain R): 4 µg/mL (≈ 9.45 µM)
MIC (K. pneumoniae NCTC 13368; [17]): 8 µg/mL (≈ 18.9 µM)
MIC (K. pneumoniae NCTC 13368; NCTC13368, –PAβN, Table 3, strain R): > 32 µg/mL
MIC (K. pneumoniae NCTC 13368; [18]): 32 µg/mL (≈ 75.6 µM)
potentiation of MIC by PMBN (K. pneumoniae NCTC 13368): 4–8 fold
effect of PAβN on MIC (K. pneumoniae NCTC 13368; [19]): significant potentiation
antibacterial activity [1]: limited activity
